Data from patent publication US11020449B2, “Use of the GK-1 peptide as an antitumoral and/or antimetastatic agent” (UNIVERSIDAD NACIONAL AUTÓNOMA DE MÉXICO, priority 2016, dated 2021).
Like-named read-outs stand apart in the source and are kept apart here.

What was measured:
4T1 cells [1] = conditions: superficial zone, day 39
Experimental: A histological analysis was performed on primary tumors at day 39 post-implantation, to determine the percentage of zones with tissue death in mice from the Example of Embodiment 3. All tumors were manually sectioned and fixed in a 10% formaldehyde solution overnight at 4° C. Then, samples were included in paraffin and processed to obtain 4-μm slices; slices were stained with hematoxylin and eosin (H&E). The upper, middle, and deep tumor sections were analyzed through an Olympus B×50 microscope equipped with a digital camera and using the Infinity Analyze software (v6.3.0).

4T1 cells [2] = conditions: day 39, five experiments
Description: It is known that the metastasis sites in the 4T1 cell-induced breast cancer murine model are lungs, brain, liver, and bone [Aslakson C. J. et al., Cancer Res. 1992, 52(6): 1399-405; Mi Z. et al., J Biol Che. 2004; 279(45): 46659-67]. Therefore, to assess the antimetastatic effect of GK-1, lungs, liver, and brain from mice in G1 and G2 groups in the Example of Embodiment 3 were recovered and fixed with a 10% formaldehyde solution to macroscopically identify any metastatic focus on these organs.

[3] = test system: 4T1 mammary carcinoma murine model
Experimental: Lungs, liver, spleen, brain, and primary tumor were dissected from mice in the groups G1 and G2 of the Example of Embodiment 3, to determine the soluble factors present in the tumor microenvironment and in metastatic-associated organs; in order to obtained a protein extract, 5 mg of each tissue were weighed and placed in 300 μL of lysis buffer with protease inhibitors, then were homogenized. Finally, homogenates were centrifuged for 20 min at 13 000 rpm at 4° C., collecting the supernatants (protein extract). Additionally, serum was isolated from blood samples obtained from all mice. Serum and protein extract samples were processed through the Magpix Luminex system (xPonent software) to determine the concentration of cytokines, chemokines, and growth factors.
Data in Tables 2, 3, and 4 correspond to spleen, lung, and brain soluble factor concentrations expressed in pg/mg of protein. A random sample of 6 mice was taken from 5 independent experiments. * P<0.05.

B16-F10 cells [4] = assay: B16-F10 melanoma model: survival rate and lung tumor foci (four groups); format: in vivo, C57BL/6 mice; conditions: for survival rate: i.v. weekly, 32 days after implantation
Experimental: The B16 melanoma model is a lung metastasis model widely used for therapy evaluation. While the term “lung metastasis” is used to characterize this type of model, technically each lung nodule is a primary tumor.
Once the tumor is established (16 days after B16-F10 cells were implanted), mice were separated into four groups: One group was administered with a 0.10 μg/μL GK-1 solution in DMSO (0.05%); another group was administered with 0.10 μg/μL GK-1 solution in ISS; a third group received 100 μL of DMSO (0.05%); and a fourth group was administered with 100 μL of ISS; treatments were applied intravenously in all cases. Treatments were repeated weekly after a palpable tumor appeared and for 32 days after cell implantation.
In order to establish the antitumor effect of GK-1, lungs were dissected from mice in all experimental groups at the day 32 post-implantation, and were fixed in a 10% formaldehyde solution to macroscopically determine the number of tumor foci developed.

B16-F10 cells [5] = conditions: for Number of tumors developed (Tumors): 10 μg GK-1 i.v. weekly, 32 days, mean±standard deviation
Experimental: To evaluate the antimetastatic effect of GK-1 in melanoma, 2×10^4 cells of the B16-F10 line were intravenously injected to C57BL/6 mice (n=40; 20 females and 20 males). At day 16 post-implantation, mice were separated into two groups: The G1 group (10 males and 10 females) was intravenously administered with 10 μg of GK-1 dissolved in 100 μL of ISS; the G2 group (10 males, 10 females) was intravenously administered with 100 μL of ISS. Treatments were repeated weekly for 32 days after cell implantation.

melanoma = conditions: mouse melanoma model; cited from earlier work
influenza vaccine = conditions: cited from earlier work
[6] = test system: TCD4+ and TCD8+ lymphocyte populations; conditions: cited from earlier work

**Q.** Which results are given for “G-Y-Y-Y-P-S-D-P-N-T-F-Y-A-P-P-Y-S-A (GYYYPSDPNTFYAPPYSA; tapeworm) [GK-1]”?
**A.** area of necrotic-apoptotic cells in primary tumor (4T1 cells [1]): increase in the area of necrotic-apoptotic cells; proportion of mice with lung metastatic foci within the 0-20 range (4T1 cells [2]): 67%; CCL2 concentration ([3]; Brain): 3.44E+00 pg/mg of protein; CCL3 concentration ([3]; Brain): 1.40E+01 pg/mg of protein; CXCL9 concentration ([3]; Brain): 1.44E+02 pg/mg of protein; GM-CSF concentration ([3]; Brain): 2.53E+01 pg/mg of protein; IL-1α concentration ([3]; Brain): 1.44E+01 pg/mg of protein; IL-2 concentration ([3]; Brain): 6.02E+01 pg/mg of protein; IL-4 concentration ([3]; Brain): 1.36E+02 pg/mg of protein; IL-5 concentration ([3]; Brain): 1.18E+02 pg/mg of protein; IL-12 concentration ([3]; Brain): 5.29E+00 pg/mg of protein; IL-17 concentration ([3]; Brain): 8.06E+01 pg/mg of protein; TNF-α concentration ([3]; Brain): 1.26E+01 pg/mg of protein; bFGF concentration ([3]; Brain): 1.16E+04 pg/mg of protein; CCL2 concentration ([3]; Lung): 4.71E+01 pg/mg of protein; CCL3 concentration ([3]; Lung): 5.36E+01 pg/mg of protein; CXCL9 concentration ([3]; Lung): 3.88E+03 pg/mg of protein; GM-CSF concentration ([3]; Lung): 4.06E+01 pg/mg of protein; IL-1α concentration ([3]; Lung): 1.50E+02 pg/mg of protein; IL-2 concentration ([3]; Lung): 6.28E+01 pg/mg of protein; IL-4 concentration ([3]; Lung): 1.49E+02 pg/mg of protein; IL-5 concentration ([3]; Lung): 2.06E+02 pg/mg of protein; IL-12 concentration ([3]; Lung): 3.83E+00 pg/mg of protein; IL-17 concentration ([3]; Lung): 6.22E+00 pg/mg of protein; TNF-α concentration ([3]; Lung): 3.21E+01 pg/mg of protein; bFGF concentration ([3]; Lung): 3.61E+03 pg/mg of protein; CCL2 concentration ([3]; Spleen): 1.19E+01 ± 4.41E+00 pg/mg of protein; CCL3 concentration ([3]; Spleen): 4.99E+01 ± 1.51E+01 pg/mg of protein; CXCL9 concentration ([3]; Spleen): 2.31E+04 ± 1.36E+04 pg/mg of protein; GM-CSF concentration ([3]; Spleen): 3.79E+01 ± 1.60E+01 pg/mg of protein; IL-1α concentration ([3]; Spleen): 6.28E+02 ± 2.42E+02 pg/mg of protein; IL-2 concentration ([3]; Spleen): 6.65E+01 ± 1.05E+01 pg/mg of protein; IL-4 concentration ([3]; Spleen): 7.03E+01 ± 9.56E+01 pg/mg of protein; IL-5 concentration ([3]; Spleen): 1.65E+02 ± 1.00E+02 pg/mg of protein; IL-12 concentration ([3]; Spleen): 8.06E+01 ± 3.61E+01 pg/mg of protein; IL-17 concentration ([3]; Spleen): 2.98E+00 ± 3.01E+00 pg/mg of protein; TNF-α concentration ([3]; Spleen): 1.00E+02 ± 2.46E+01 pg/mg of protein; bFGF concentration ([3]; Spleen): 2.30E+04 ± 3.54E+03 pg/mg of protein; cytokine profile in serum or liver samples versus G2 ([3]; serum, liver): no differences were found; survival rate (B16-F10 cells [4]; GK-1 dissolved in DMSO (0.05%)): 25%; survival rate (B16-F10 cells [4]; GK-1 dissolved in ISS): 57.14%; number of tumor foci developed in lungs versus other treatments (B16-F10 cells [4]; day 32, GK-1 in DMSO or ISS versus vehicles): no statistically significant differences; Distant (tumors at sites other than the lungs: liver, brain, intestine) (B16-F10 cells [5]; Females): 1/10; Lung (mice with lung tumors) (B16-F10 cells [5]; Females): 8/10; Number of tumors developed (Tumors) (B16-F10 cells [5]; Females): 62.9 ± 48.1; Distant (tumors at sites other than the lungs: liver, brain, intestine) (B16-F10 cells [5]; Males): 0/10; Lung (mice with lung tumors) (B16-F10 cells [5]; Males): 8/10; Number of tumors developed (Tumors) (B16-F10 cells [5]; Males): 77.0 ± 37.6; antimetastatic effect in melanoma (B16-F10 cells [5]; lung tumor foci G1 versus G2): ineffective to stop metastasis in melanoma; mean survival (melanoma): increased the mean survival; primary tumor necrosis (melanoma): increased primary tumor necrosis; tumor growth rate (melanoma): delayed tumor growth rate; infiltrate of mononuclear cells to the lung parenchyma (influenza vaccine; a few days after subcutaneous administration): promotes the infiltrate of mononuclear cells; titer of specific IgG antibodies (influenza vaccine; young and senile mice, influenza vaccine adjuvant): increasing the titer of specific IgG antibodies; proliferation of TCD4+ and TCD8+ lymphocyte populations [6]: increase the proliferation
